Reference: patent publication US20250092014A1, “COMPOUNDS AND METHODS OF ACTIVATING LIPOPROTEIN LIPASE” (Metrea Biosciences, Inc., priority 2021, published 2025)
“Also recorded” adds a separate entry of the source.

Key:
Human LPL [1] = target: T1, Human LPL (Homo sapiens, UniProt P06858); test: Cellular lipolysis assay, Angptl4 protection, CHO pgsA-745/GPIHBP1 cells; format: cell-based; conditions: 30 μM, 10 μM, 3 μM, 1 M and 0.3 μM doses, compared to 50 nM LPL with 30 nM Angptl4
T1 construct: purchased R&D Systems; host or cells: LPL added from outside to CHO pgsA-745 cells stably transfected with human GPIHBP1-HA
T1 sequence (P06858 28-475): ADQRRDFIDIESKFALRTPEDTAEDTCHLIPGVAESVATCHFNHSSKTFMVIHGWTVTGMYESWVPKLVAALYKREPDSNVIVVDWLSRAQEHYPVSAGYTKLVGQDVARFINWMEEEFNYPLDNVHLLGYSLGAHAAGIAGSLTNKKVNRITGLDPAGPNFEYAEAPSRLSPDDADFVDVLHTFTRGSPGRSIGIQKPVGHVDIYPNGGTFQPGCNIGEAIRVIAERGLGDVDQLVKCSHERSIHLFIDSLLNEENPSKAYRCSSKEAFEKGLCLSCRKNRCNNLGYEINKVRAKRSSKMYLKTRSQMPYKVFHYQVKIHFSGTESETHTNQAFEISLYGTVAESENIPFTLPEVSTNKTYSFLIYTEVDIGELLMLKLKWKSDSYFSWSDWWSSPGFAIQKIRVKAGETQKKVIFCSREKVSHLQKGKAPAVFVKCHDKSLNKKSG
T1 sequence (Q8IV16 21-151 partner limits assumed): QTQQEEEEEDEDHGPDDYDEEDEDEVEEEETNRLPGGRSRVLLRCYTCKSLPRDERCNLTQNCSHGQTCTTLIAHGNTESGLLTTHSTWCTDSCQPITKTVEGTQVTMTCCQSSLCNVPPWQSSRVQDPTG
Method: (§1) Chinese hamster ovary (CHO) mutant pgsA-745 cells were grown in F-12K media (ATCC) with 10% FBS and penicillin/streptomycin. One day prior to transfection 300,000 cells were seeded per well in a 6 well plate and cultured overnight. 2 μg of human GPIHBPI in pcDNA3.1(+)—C-HA (Genscript) were transfected using Lipofectamine 3000 (Invitrogen) and the cells were cultured for 24 hours. Cells were split into selection media (600 μg/ml G418 (Gibco)) and a stable pool was established and verified by qPCR and western blotting using anti-HA (Cell Signaling) and GPIHBP1 (Santa Cruz) antibodies (data not shown).
(§2) CHO pgsA-745 cells overexpressing GPIHBPI were seeded at 200,000 cells per well in 24 well plates and cultured overnight. Media was replaced with serum-free F-12K media containing 0.1 U/ml heparin and cultured for 2 hours to remove surface bound endogenous LPL, then cells were washed with PBS. Human LPL (R&D Systems) was diluted to 50 nM in serum free media and added for 30 minutes gently shaking at room temperature, then cells were washed with PBS to remove unbound LPL. Test compounds were diluted in serum free media and added to cells for 20 minutes at room temperature gently shaking, followed by 10× ANGPTL4 (30 nM final concentration) for another 20 minutes. Test compound and ANGPTL4 were removed and cells washed with PBS. […] Media was removed and fluorescence read at Ex482/Em515.

Human LPL [2] = target: T1, Human LPL; test: Cellular lipolysis assay, intrinsic activation (Angptl4 omitted), CHO pgsA-745/GPIHBP1 cells; format: cell-based; conditions: 30 μM, 10 PM, 3 μM and 1 μM doses, compared to 50 nM LPL alone
Method: as §1
as §2, with “Test compounds were diluted in serum free media and added to cells for 20 minutes at room temperature gently shaking, followed by 10× ANGPTL4 (30 nM final concentration) for another 20 minutes.” left out

## O=C(O)Cc1cc(F)ccc1NC(=O)c1ccc(N2CCCCC2)c(NC(=O)c2nn(CC(F)(F)F)c3ccccc23)c1 [Compound 158, 2-(5-fluoro-2-(4-(piperidin-1-yl)-3-(1-(2,2,2-trifluoroethyl)-1H-indazole-3-carboxamido)benzamido)phenyl)acetic acid]
Human LPL [1]
  lipolysis activity (EnzChek substrate fluorescence), protection of LPL from inactivation by ANGPTL4: protective action; also recorded: significantly increased lipolysis activity
Human LPL [2]
  lipolysis activity (EnzChek substrate fluorescence), intrinsic activation of LPL: intrinsic activation; also recorded: significantly increased lipolysis activity
